From PubChem BioAssay AID434974 (The Scripps Research Institute Molecular Screening Center, 2010)
Calls of active or inactive are those of the source. The rule behind the calls is not given here.

Experiments:
Assay in all cases: off-target binding across PDSP receptor panel, profiling panel, selectivity assay for NOX1 inhibitor project, biochemical, radioligand binding (AID 434974)
[1] = molecular target: Kappa-type opioid receptor (Homo sapiens) (UniProt P41145); settings: receptor displacement, Opioid receptor KOR, at 10 µM, active compounds read high
[2] = molecular target: Muscarinic acetylcholine receptor M1 (Homo sapiens) (UniProt P11229); settings: receptor displacement, at 10 µM, active compounds read high
[3] = molecular target: Muscarinic acetylcholine receptor M2 (Homo sapiens) (UniProt P08172); settings: receptor displacement, at 10 µM, active compounds read high
[4] = molecular target: Muscarinic acetylcholine receptor M3 (Homo sapiens) (UniProt P20309); settings: receptor displacement, at 10 µM, active compounds read high
Muscarinic receptor M4 = settings: receptor displacement, at 10 µM, active compounds read high
Muscarinic receptor M5 = settings: receptor displacement, at 10 µM, active compounds read high
Nicotinic receptor A2B2 = settings: receptor displacement, at 10 µM, active compounds read high
Nicotinic receptor A2B4 = settings: receptor displacement, at 10 µM, active compounds read high
Nicotinic receptor A3B2 = settings: receptor displacement, at 10 µM, active compounds read high
Nicotinic receptor A3B4 = settings: receptor displacement, at 10 µM, active compounds read high
Nicotinic receptor A4B2 = settings: receptor displacement, at 10 µM, active compounds read high
Nicotinic receptor A4B4 = settings: receptor displacement, at 10 µM, active compounds read high
Opioid receptor MOR = settings: receptor displacement, at 10 µM, active compounds read high
[5] = molecular target: Oxytocin receptor (Homo sapiens) (UniProt P30559); settings: receptor displacement, at 10 µM, active compounds read high
[6] = system: Prostaglandin receptor EP3; settings: receptor displacement, at 10 µM, active compounds read high
[7] = system: Prostaglandin receptor EP4; settings: receptor displacement, at 10 µM, active compounds read high
Serotonin receptor 5ht1a = settings: receptor displacement, at 10 µM, active compounds read high
Serotonin receptor 5ht1b = settings: receptor displacement, at 10 µM, active compounds read high
Serotonin receptor 5ht1d = settings: receptor displacement, at 10 µM, active compounds read high
Serotonin receptor 5ht1e = settings: receptor displacement, at 10 µM, active compounds read high
Serotonin receptor 5ht2a = settings: receptor displacement, at 10 µM, active compounds read high
Serotonin receptor 5ht2c = settings: receptor displacement, at 10 µM, active compounds read high
Serotonin receptor 5ht3 = settings: receptor displacement, at 10 µM, active compounds read high
Serotonin receptor 5ht5a = settings: receptor displacement, at 10 µM, active compounds read high
Serotonin receptor 5ht6 = settings: receptor displacement, at 10 µM, active compounds read high
Serotonin receptor 5ht7 = settings: receptor displacement, at 10 µM, active compounds read high
Sigma receptor 1 = settings: receptor displacement, at 10 µM, active compounds read high
Sigma receptor 2 = settings: receptor displacement, at 10 µM, active compounds read high
Vasopressin receptor V1A = settings: receptor displacement, at 10 µM, active compounds read high
Vasopressin receptor V1B = settings: receptor displacement, at 10 µM, active compounds read high
Vasopressin receptor V2 = settings: receptor displacement, at 10 µM, active compounds read high

Sequence of Muscarinic acetylcholine receptor M1 (Homo sapiens) (P11229 whole entry, looked up): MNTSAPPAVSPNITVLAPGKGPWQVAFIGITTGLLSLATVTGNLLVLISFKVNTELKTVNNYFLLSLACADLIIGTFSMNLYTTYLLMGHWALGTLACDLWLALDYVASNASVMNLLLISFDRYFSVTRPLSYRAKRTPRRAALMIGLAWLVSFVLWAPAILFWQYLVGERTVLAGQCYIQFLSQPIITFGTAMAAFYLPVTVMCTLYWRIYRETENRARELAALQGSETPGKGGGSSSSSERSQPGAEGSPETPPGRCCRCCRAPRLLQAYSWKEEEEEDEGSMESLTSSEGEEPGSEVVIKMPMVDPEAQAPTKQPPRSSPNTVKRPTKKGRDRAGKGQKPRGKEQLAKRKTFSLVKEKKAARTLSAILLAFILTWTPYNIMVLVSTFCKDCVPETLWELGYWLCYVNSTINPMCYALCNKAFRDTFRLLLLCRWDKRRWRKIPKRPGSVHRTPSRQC
Sequence of Muscarinic acetylcholine receptor M3 (Homo sapiens) (P20309 whole entry, looked up): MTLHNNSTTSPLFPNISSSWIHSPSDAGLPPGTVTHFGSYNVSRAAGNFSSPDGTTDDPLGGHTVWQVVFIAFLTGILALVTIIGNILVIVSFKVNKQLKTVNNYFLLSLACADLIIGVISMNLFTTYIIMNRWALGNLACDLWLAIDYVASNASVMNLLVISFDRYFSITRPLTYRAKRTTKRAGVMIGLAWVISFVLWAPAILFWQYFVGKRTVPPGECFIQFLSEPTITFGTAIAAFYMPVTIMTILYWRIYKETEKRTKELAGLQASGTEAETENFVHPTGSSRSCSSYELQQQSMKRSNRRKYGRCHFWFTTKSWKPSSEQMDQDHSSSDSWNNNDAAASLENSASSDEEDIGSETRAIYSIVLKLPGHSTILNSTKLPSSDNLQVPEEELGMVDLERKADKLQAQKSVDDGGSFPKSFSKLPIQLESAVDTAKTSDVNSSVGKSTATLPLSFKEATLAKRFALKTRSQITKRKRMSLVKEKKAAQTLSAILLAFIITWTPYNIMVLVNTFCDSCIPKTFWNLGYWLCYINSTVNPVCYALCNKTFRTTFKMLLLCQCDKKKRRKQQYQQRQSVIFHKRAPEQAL
Sequence of Kappa-type opioid receptor (Homo sapiens) (P41145 whole entry, looked up): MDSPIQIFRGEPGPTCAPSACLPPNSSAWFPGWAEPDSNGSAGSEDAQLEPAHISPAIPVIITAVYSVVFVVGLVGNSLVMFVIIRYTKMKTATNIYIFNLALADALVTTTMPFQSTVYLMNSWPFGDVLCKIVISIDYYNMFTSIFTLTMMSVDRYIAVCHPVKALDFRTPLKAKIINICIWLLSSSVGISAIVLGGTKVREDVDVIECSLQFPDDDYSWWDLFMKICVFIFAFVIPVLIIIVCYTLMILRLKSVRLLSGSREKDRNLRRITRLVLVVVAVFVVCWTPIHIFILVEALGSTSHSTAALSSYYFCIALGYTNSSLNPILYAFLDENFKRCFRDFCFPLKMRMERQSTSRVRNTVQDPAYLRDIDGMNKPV
Sequence of Muscarinic acetylcholine receptor M2 (Homo sapiens) (P08172 whole entry, looked up): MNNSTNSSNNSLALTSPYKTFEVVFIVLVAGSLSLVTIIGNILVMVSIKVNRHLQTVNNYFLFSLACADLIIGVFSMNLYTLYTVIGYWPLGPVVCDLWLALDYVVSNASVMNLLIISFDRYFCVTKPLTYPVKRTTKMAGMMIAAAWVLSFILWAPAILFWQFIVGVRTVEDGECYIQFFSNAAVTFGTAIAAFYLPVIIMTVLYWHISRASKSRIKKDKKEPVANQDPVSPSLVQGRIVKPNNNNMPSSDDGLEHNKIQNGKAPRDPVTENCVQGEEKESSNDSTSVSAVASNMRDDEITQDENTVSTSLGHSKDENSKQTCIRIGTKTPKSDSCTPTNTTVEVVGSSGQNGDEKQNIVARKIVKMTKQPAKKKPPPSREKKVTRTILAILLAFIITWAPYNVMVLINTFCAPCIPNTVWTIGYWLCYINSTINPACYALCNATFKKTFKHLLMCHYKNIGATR
Sequence of Oxytocin receptor (Homo sapiens) (P30559 whole entry, looked up): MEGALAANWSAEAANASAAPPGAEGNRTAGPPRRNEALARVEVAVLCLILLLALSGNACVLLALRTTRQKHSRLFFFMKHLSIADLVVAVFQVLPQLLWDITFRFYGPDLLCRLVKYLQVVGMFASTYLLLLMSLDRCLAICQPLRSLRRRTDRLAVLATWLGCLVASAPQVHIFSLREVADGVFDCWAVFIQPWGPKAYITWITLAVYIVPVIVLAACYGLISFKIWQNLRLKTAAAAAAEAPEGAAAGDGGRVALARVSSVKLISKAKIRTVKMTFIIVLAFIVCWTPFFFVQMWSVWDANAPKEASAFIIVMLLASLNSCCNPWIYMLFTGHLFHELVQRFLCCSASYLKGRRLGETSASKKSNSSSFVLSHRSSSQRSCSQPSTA

With `CN1c2ccccc2Sc2cc(N)ccc21` the inhibition [1] was 16.3% (inactive), the inhibition [2] was 1.1% (inactive) and the inhibition [3] was 22.4% (inactive). For the same compound, the inhibition [4] was -5.8% (inactive), the inhibition (Muscarinic receptor M4) was 19.3% (inactive) and the inhibition (Muscarinic receptor M5) was 2.3% (inactive). For the same compound, the inhibition (Nicotinic receptor A2B2) was -4% (inactive), the inhibition (Nicotinic receptor A2B4) was 4% (inactive) and the inhibition (Nicotinic receptor A3B2) was 4% (inactive). For the same compound, the inhibition (Nicotinic receptor A3B4) was 0% (inactive), the inhibition (Nicotinic receptor A4B2) was 1% (inactive) and the inhibition (Nicotinic receptor A4B4) was 7% (inactive). The inhibition (Opioid receptor MOR) was -18% (inactive), the inhibition [5] was 38.3% (inactive) and the inhibition [6] was 0% (inactive). The inhibition [7] was 45.5% (inactive), the inhibition (Serotonin receptor 5ht1a) was 34.4% (inactive) and the inhibition (Serotonin receptor 5ht1b) was 11.3% (inactive). The inhibition (Serotonin receptor 5ht1d) was 16.1% (inactive), the inhibition (Serotonin receptor 5ht1e) was 13.1% (inactive) and the inhibition (Serotonin receptor 5ht2a) was 33.2% (inactive). The inhibition (Serotonin receptor 5ht2c) was 62.4%, the inhibition (Serotonin receptor 5ht3) was 1.4% (inactive) and the inhibition (Serotonin receptor 5ht5a) was 45.6% (inactive). For the same compound, the inhibition (Serotonin receptor 5ht6) was 30.8% (inactive), the inhibition (Serotonin receptor 5ht7) was -5.7% (inactive) and the inhibition (Sigma receptor 1) was 50.1%. The inhibition (Sigma receptor 2) was 9% (inactive), the inhibition (Vasopressin receptor V1A) was 4% (inactive) and the inhibition (Vasopressin receptor V1B) was 8.9% (inactive). The inhibition (Vasopressin receptor V2) was -5.5% (inactive).
